Legend:
Assay type in all cases: cell-based, human
HeLa cells [1] = assay: Microtubule stability against Colcemid in HeLa cells (immunofluorescence); conditions: pretreated (1 μM 16 hours, or 200 nM oligonucleotide 24 hours), then 1 μM Colcemid 15 minutes, FIG. 11
Procedure: (3) the introduction of HDAC6 antisense oligonucleotide No. 16 at a final concentration of 200 nM with OligofectAMINE followed by a 24-hour culture.
Then, Lab-TekII Chambered Coverglass was washed with 0.1 M PIPES (pH 6.9), the cells were fixed in 0.5% glutaraldehyde/0.1 PIPES (pH 6.9) for 10 minutes, washed three times with PBS, permealized three times with 0.5% Triton X100/PBS for 5 minutes each, washed three times with PBS, treated three times with 2.5 mg/ml sodium borohydride/50% ethanol for 10 minutes each, washed three times with PBS, blocked with 10% normal goat serum/PBS, reacted with a primary antibody rat anti-α-tubulin monoclonal antibody (MAB1864; CHEMICON)/PBS for 1 hour, washed three times with 0.1% Tween 20/PBS, reacted with a second antibody Alexa Fluor 488-conjugated anti-rat IgG (Molecular Probe)/PBS for 30 minutes, and washed three times with 0.1% Tween 20/PBS, and then examined under a conforcal laser scanning microscope (Carl Zeiss).

HeLa cells [2] = assay: Changes in microtubule structure in HeLa cells (immunofluorescence, confocal microscopy); conditions: FIG. 5
Procedure: HeLa cells were plated on the Lab-TekII Chambered Coverglass (Nunc), and were subjected to:
(1) treatment for 16 hours with 1 μM Paclitaxel (Sigma), a microtubule polymerizing agent;
(3) the introduction of HDAC6 antisense oligonucleotide No. 4 at a final concentration of 200 nM with OligofectAMINE followed by a 24-hour culture.
Then, Lab-TekII Chambered Coverglass was washed with 0.1 M PIPES (pH 6.9), the cells were fixed in 0.5% glutaraldehyde/0.1 M PIPES (pH 6.9) for 10 minutes, washed three times with PBS, permealized three times with 0.5% Triton X100/PBS for 5 minutes each, washed three times with PBS, treated three times with 2.5 mg/ml sodium borohydride/50% ethanol for 10 minutes each, washed three times with PBS, blocked with 10% normal goat serum/PBS, reacted with a primary antibody (a) anti-acetylated α-tubulin antibody (clone 6-11B-1, Sigma) or (b) anti-α-tubulin antibody (clone DM lA, Sigma)/PBS for 1 hour, washed three times with 0.1% Tween 20/PBS, reacted with a second antibody Alexa Fluor 488-conjugated anti-mouse IgG (Molecular Probe)/PBS for 30 minutes, and washed three times with 0.1% Tween 20/PBS, and then examined under a conforcal laser scanning microscope (Carl Zeiss).

acetylated α-tubulin = assay: Acetylation of α-tubulin in HeLa cells (Western blot); conditions: 200 nM, 24, 30, 36 and 48 hours, FIG. 4
Procedure: The each synthesized antisense oligonucleotide was dissolved in sterile water, and was introduced into HeLa cells using the OligofectAMINE (Invitrogen) according to an attached protocol. The 1.5×10^5 HeLa cells were plated in a 6-well plate, the final concentration of antisense oligonucleotide was set at 200 nM, and OligofectAMINE was used at 3 μl/well.
[…] After the cells were lysed with a SDS-PAGE sample buffer (BPB-free) and protein concentration was determined, the cell lysate at 25 μg/lane was separated by SDS-PAGE, transferred to a PVDF membrane, and immunoblotted with anti-acetylated α-tubulin antibody (clone 6-11B-1, Sigma), anti-α-tubulin antibody (clone DMlA, Sigma) or anti-HDAC6 antibody (H-300, Santa Cruz).

HeLa cells [3] = assay: Induction of apoptosis in HeLa cells (Annexin V-PE, FACS); conditions: 200 nM, 24 to 48 hours, FIG. 6
Procedure: (§1) HeLa cells (1.5×10^5/well) were plated into a 6-well plate with MEM medium containing 10% FCS and 1× nonessential amino acids. HDAC6 antisense oligonucleotide No. 4, 5, 6 or 16 at the final concentration of 200 nM or the control oligonucleotide was introduced into the cells with OligofectAMINE at 3 μl/well, and the cells were treated for 24 hours, 30 hours, 36 hours, or 48 hours. The cells were detached by trypsin treatment and collected, and stained with Annexin V-PE (Becton Dickinson) according to a protocol attached, and analyzed using the FACS caliber (Becton Dickinson).
Thus, the collected cells were washed with PBS, suspended in 100 μl of the binding buffer (Becton Dickinson), to which suspension 5 μl of Annexin V-PE was added and incubated for 15 minutes, and the binding buffer was added to make a total volume of 500 μl. This was subjected to FACS analysis.

HeLa cells [4] = assay: Depolarization of mitochondrial membrane potential in HeLa cells (JC-1, FACS); conditions: 200 nM, 24, 36 or 48 hours, FIG. 7
Procedure: as §1, with “5” for “5, 6”, “hours,” for “hours, 30 hours,”, “hours” for “hours,”, “Mitochondrial potential sensor JC-1 (Molecular Probes) was added to the medium at the final concentration of 10 μg/ml and the cells were further caltivated at 37° C. for 10 minutes. Ten minutes later, the” for “The”, “and” for “and stained with Annexin V-PE (Becton Dickinson) according to a protocol attached, and”
Therefore, in order to detect the cells in which mitochondrial membrane potential is depolarized, the ratio of green fluorescence-positive cells was graphically shown and used as an index of apoptosis.

HDAC6 [5] = assay: Suppression of HDAC6 protein expression in HeLa cells (Western blot); conditions: for production of HDAC6, changing treatment time: 200 nM, 24, 30, 36 and 48 hours, FIG. 4
HDAC6 [6] = assay: Suppression of HDAC6 protein expression in HepG2, SW480, LoVo and Calu-1 cells (Western blot); conditions: HepG2, SW480, LoVo, Calu-1 cells; 200 nM, 48 hours; FIG. 8

CC(=O)O[C@H]1C(=O)[C@@]2(C)[C@H]([C@H](OC(=O)c3ccccc3)[C@]3(O)C[C@H](OC(=O)[C@H](O)[C@@H](NC(=O)c4ccccc4)c4ccccc4)C(C)=C1C3(C)C)[C@]1(OC(C)=O)CO[C@@H]1C[C@@H]2O [Paclitaxel]
microtubules after Colcemid in pretreated cells (HeLa cells [1]): the remaining of the polymerized microtubules was observed
microtubule structure, stained with anti-acetylated α-tubulin antibody (HeLa cells [2]; 1 μM, 16 hours): hyperpolymerized microtubules from the centromere were observed
microtubule structure, stained with anti-α-tubulin antibody (HeLa cells [2]; 1 μM, 16 hours): hyperpolymerized microtubules were observed in the periphery of the nucleus

CC(/C=C/C(=O)NO)=C\[C@@H](C)C(=O)c1ccc(N(C)C)cc1 [Trichostatin A]
microtubules after Colcemid in pretreated cells (HeLa cells [1]): the remaining of the polymerized microtubules was observed
microtubule structure (HeLa cells [2]; 1 μM Trichostatin A 16 hours or 200 nM antisense oligonucleotide 24 hours): images of polymerized microtubules were observed throughout the cytoplasm

antisense oligonucleotide 5: phosphorothioated HDAC6 antisense oligonucleotide GCTGCCTGGT TGTGGTGGAA, complementary to a sequence downstream of ATG (antisense GCTGCCTGGTTGTGGTGGAA; all phosphorothioate, sugars by position and methylation of C not given here)
acetylation of α-tubulin, changing treatment time (acetylated α-tubulin): the acetylation of α-tubulin was enhanced at any time
apoptosis judged by Annexin V positivity (HeLa cells [3]): induces apoptosis
mitochondrial depolarization judged by JC-1 staining (HeLa cells [4]): induces mitochondrial depolarization
production of HDAC6, changing treatment time (HDAC6 [5]): inhibits the production of HDAC6

antisense oligonucleotide 6: phosphorothioated HDAC6 antisense oligonucleotide TTTATTACAT ATGCAACCTT, upstream sequence comprising the polyadenylation signal; used as negative control (antisense TTTATTACATATGCAACCTT; all phosphorothioate, sugars by position and methylation of C not given here)
acetylation of α-tubulin, changing treatment time (acetylated α-tubulin): enhances the acetylation of α-tubulin
production of HDAC6, changing treatment time (HDAC6 [5]): inhibits the production of HDAC6

control oligo: control oligonucleotide CCTCTTACCT CAGTTACAAT, from abnormal splicing site 705 of β globin pre-mRNA; no specific target in normal cells (antisense CCTCTTACCTCAGTTACAAT; all phosphorothioate, sugars by position and methylation of C not given here)
amount of expressed HDAC6 (HDAC6 [6]): did not have any activity of causing the reduction of HDAC6 protein expression
amount of expressed HDAC6 protein (HDAC6 [5]; 200 nM oligonucleotide, 48 hours after introduction, FIG. 3): did not have any activity of causing the reduction of HDAC6 protein expression
